Here are results for 37 compounds from US11884627B2, “Compounds and compositions for treating conditions associated with LPA receptor activity” (Lhotse Bio, Inc., priority 2022, dated 2024).

SMILES strings stand for the structures. Like-named read-outs stand apart in the source and are kept apart here.

This test concerns the target T1, human LPA1 (Homo sapiens, UniProt Q92633).
T1 construct: expressed in transfected cells; host or cells: CHO-K1
In words: In vitro LPA1 calcium flux antagonist assay - Bioduro protocol. The class given is cell-based. The following applies: CHO-K1 cells overexpressing human LPA1 and G15a, LPA challenge at EC80. As to the method: In Vitro LPA1 Calcium Flux Antagonist Assay—Bioduro Protocol
CHO-K1 cells overexpressing human LPA1 and G15a were seeded at a total volume of 20 μL (15000 cells/well) into Matrigel pre-coated 384-well plates (corning −3764) and incubated at 37° C. After overnight incubation, the cells were serum starved for 4 h. Assays were performed in dye loading buffer containing 1× Fluo-8 AM (AAT Bioquest, 21080) and 2.5 mM probenecid (Thermo Fisher, 36400) in HBSS/20 mM Hepes. After cell starvation, the medium was replaced with 20 μL of dye loading buffer and incubated at 37° C., for 30 min. Then 5 μL of 5× compound titrated in dye loading buffer was added to the cells and incubated for 30 min followed by LPA challenge at EC80. Calcium mobilization was measured on a FLIPR Tetra (MSD). For LPA EC80 determination, starved cells were incubated with 20 μL of dye loading buffer for 1 h, then 5 μL of 5×LPA titrated in dye loading buffer was added to the cells. Calcium signals induced by LPA was monitors on a FLIPR.
Percentage inhibition is calculated using the following formula: % Inhibition=100%×(1−(mean RFU of test sample−mean RFU of DMSO)/(mean RFU of LPA control−mean RFU of DMSO)).
Table B3 and Table B4 show the biological activity of compounds in in vitro LPA1 Calcium flux antagonist assay—Bioduro protocol.

Where [1] appears, read: calcium mobilization on FLIPR Tetra, read-out: IC50.
Setting [2] is: Table B3, read-out: Activity (IC50 class).

T1 sequence (Q92633 whole entry): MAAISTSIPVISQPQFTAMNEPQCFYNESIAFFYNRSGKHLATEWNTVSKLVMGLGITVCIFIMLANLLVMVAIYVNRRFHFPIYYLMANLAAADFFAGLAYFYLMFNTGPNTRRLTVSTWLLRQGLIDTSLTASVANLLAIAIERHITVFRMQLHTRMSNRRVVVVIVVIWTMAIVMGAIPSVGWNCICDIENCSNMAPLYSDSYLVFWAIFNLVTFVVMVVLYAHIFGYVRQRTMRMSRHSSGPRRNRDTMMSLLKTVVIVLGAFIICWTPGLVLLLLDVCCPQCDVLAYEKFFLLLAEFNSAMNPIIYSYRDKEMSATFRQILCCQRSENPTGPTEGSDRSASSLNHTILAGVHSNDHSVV

For `COc1cc(OC)cc(-c2ccc(NC3(C(=O)O)CCOCC3)cc2CO[C@H]2CCC[C@H]2NC(C)=O)c1` [Compound 169], the IC50 reads like this: under setting [1], more than 10000 nM; under setting [2], more than 1000 nM.

For the compound `CCOc1cccc(-c2ccc(NC3(C(=O)O)CCCC3)cc2COC2CC2)c1C(F)F` [Compound 376], the IC50 was 1.03 nM under setting [1] and less than 100 nM under setting [2].

For the compound `CCOc1c(C)ccc(-c2ccc(NC3(C(=O)O)CCOCC3)cc2COC2CC2)c1F` [Compound 381], the IC50 was 17.5 nM under setting [1] and less than 100 nM under setting [2].

`COc1cc(-c2ccc(NC3(C(=O)O)CCOCC3)cc2COCC2CCC2)c(F)c(OC)c1C` [Compound 353]: the IC50 was 8.39 nM under setting [1] and less than 100 nM under setting [2].

`CCOc1cc(OC)cc(-c2ccc(NC3(C(=O)O)CCC(F)(F)CC3)cc2COC2CC2)c1F` [Compound 388]: the IC50 under setting [1] turned out to be 6.2 nM and the IC50 under setting [2] was less than 100 nM.

For `O=C(O)C1(Nc2ccc(-c3cccc(OC4CC4)c3C(F)F)c(COC3CC3)c2)CCC(F)(F)CC1` [Compound 389], the IC50 is, setting by setting: under setting [1], 0.772 nM; under setting [2], less than 100 nM.

For the compound `CCOc1c(C)c(OC)cc(-c2ccc(NC3(C(=O)O)CCOCC3)cc2COCC(C)C)c1F` [Compound 396], the IC50 reads like this: under setting [1], 27.5 nM; under setting [2], less than 100 nM.

`COc1cc(-c2ccc(NC3(C(=O)O)CCOCC3)cc2COC(C)C)c(F)c(OC)c1C` [Compound 352]: the IC50 under setting [1] amounted to 75 nM and the IC50 under setting [2] was less than 100 nM.

Consider `COc1cc(OC)c(F)c(-c2ccc(NC3(C(=O)O)CCOCC3)cc2COC2CCCC2)c1` [Compound 226], for which the IC50 runs as follows: under setting [1], 22.2 nM; under setting [2], less than 100 nM.

On to `COc1cc(-c2ccc(NC3(C(=O)O)CCOCC3)cc2COC2Cc3ccccc3C2)cc(OC)c1C` [Compound 111, 4-({2-[(2,3-dihydro-1H-inden-2-yloxy)methyl]-3′,5′-dimethoxy-4′-methyl-[1,1′-biphenyl]-4-yl}amino)oxane-4-carboxylic acid], for which the IC50 under setting [1] came out at 19.8 nM and the IC50 under setting [2] was less than 100 nM.

As for `COc1cc(-c2c(COC3CCCC3)cc(NC3(C(=O)O)CCOCC3)cc2C(F)F)cc(OC)c1C` [Compound 273], the IC50 runs as follows: under setting [1], 17.1 nM; under setting [2], less than 100 nM.

For `COc1cc(OC2CC2)cc(-c2ccc(NC3(C(=O)O)CCOCC3)cc2COC2CCCC2)c1F` [Compound 250], the IC50 under setting [1] was 31.7 nM and the IC50 under setting [2] was less than 100 nM.

As for `CCOc1cc(OC)cc(-c2ccc(NC3(C(=O)O)CCOCC3)cc2COC2CCCC2)n1` [Compound 363], the IC50 is 4850 nM under setting [1] and more than 1000 nM under setting [2].

On to `CCOc1cc(OC)cc(-c2ccc(C3(C(=O)O)CC3)cc2COC2CC2)c1F` [Compound 382], for which the IC50 reads like this: under setting [1], more than 10000 nM; under setting [2], more than 1000 nM.

With `COc1cc(-c2ccc(NC3(C(=O)O)CCOCC3)cc2COC2CCCC2)c(Cl)c(OC)c1F` [Compound 261], the IC50 under setting [1] was 51.9 nM and the IC50 under setting [2] is less than 100 nM.

For the compound `COc1cc(-c2ccc(NC3(C(=O)O)CCC(F)(F)CC3)cc2COC2CCCC2)cc(OC)c1C` [Compound 349], the IC50 runs as follows: under setting [1], 14.2 nM; under setting [2], less than 100 nM.

On to `COc1cc(-c2ccc(NC3(C(=O)O)CCOCC3)cc2COC2Cc3ccccc3C2)cc(OC)c1C(C)=O` [Compound 123], for which the IC50 under setting [1] is 14.8 nM and the IC50 under setting [2] was less than 100 nM.

As to `COc1cc(-c2ccc(NC3(C(=O)O)CCOCC3)cc2COC2CCCCC2)c(F)c(OC)c1C` [Compound 276], the IC50 was 25.4 nM under setting [1] and less than 100 nM under setting [2].

On to `COc1cc(-c2ccc(NC3(C(=O)O)CCOCC3)cc2COC2CC2)c(C(F)F)c(OC)c1C` [Compound 310], for which the IC50 is, setting by setting: under setting [1], 6.93 nM; under setting [2], less than 100 nM.

As to `CCOc1cncc(-c2ccc(NC3(C(=O)O)CCOCC3)cc2COC2CC2)c1C(F)F` [Compound 403], the IC50 under setting [1] was determined as 23.1 nM and the IC50 under setting [2] is less than 100 nM.

For `COc1cc(-c2ccc(NC3(C(=O)O)CCOCC3)cc2COC2CCCC2)c(F)c(C2CC2)c1` [Compound 240], the IC50 is 23.4 nM under setting [1] and less than 100 nM under setting [2].

As for `CCc1cccc(-c2ccc(NC3(C(=O)O)CCOCC3)cc2COC2CC2)c1F` [Compound 327], the IC50 under setting [1] was 412 nM and the IC50 under setting [2] was 100 to 1000 nM.

For `COc1cc(OC)c(C(F)F)c(-c2ccc(NC3(C(=O)O)CCOCC3)cc2COC2CC2)c1` [Compound 302], the IC50 under setting [1] is 85.2 nM and the IC50 under setting [2] lay within 100 to 1000 nM.

For the compound `CCOc1c(C)ncc(-c2ccc(NC3(C(=O)O)CC(F)(F)C3)cc2COC2CC2)c1C` [Compound 414], the IC50 is, setting by setting: under setting [1], 112 nM; under setting [2], 100 to 1000 nM.

Take `CCOc1cncc(-c2ccc(C3(C(=O)O)CC3)cc2COC2CCCC2)c1C(F)F` [Compound 412]: the IC50 under setting [1] worked out at 538 nM and the IC50 under setting [2] was in the range of 100 to 1000 nM.

Turning to `COc1cc(-c2ccc(NC3(C(=O)O)CCOCC3)cc2COCC(C)C)c(F)c(OC)c1C` [Compound 336], the IC50 runs as follows: under setting [1], 18.8 nM; under setting [2], less than 100 nM.

Regarding `COc1c(C)c(OC)c(F)c(-c2ccc(NC3(C(=O)O)CCOCC3)cc2COC2CCCC2)c1F` [Compound 270], the IC50 was 79.8 nM under setting [1] and less than 100 nM under setting [2].

For the compound `COc1cc(-c2ccc(NC3(C(=O)O)CC(OC)C3)cc2COC2CCCC2)c(C)c(OC)c1C` (centres unmarked) [Compound 196], the IC50 was 30.1 nM under setting [1] and less than 100 nM under setting [2].

In the case of `COc1cc(O)nc(-c2c(C)cc(NC3(C(=O)O)CCOCC3)cc2COC2CCCC2)c1` [Compound 164], the IC50 is more than 10000 nM under setting [1] and more than 1000 nM under setting [2].

In the case of `COc1cc(-c2ccc(NC3(C(=O)O)CCOCC3)cc2CCC2CCOC2)cc(OC)c1C` (single isomer, unassigned) [Compound 186, 4-((3′,5′-dimethoxy-4′-methyl-2-(2-(tetrahydrofuran-3-yl)ethyl)-[1,1′-biphenyl]-4-yl)amino)tetrahydro-2H-pyran-4-carboxylic acid], the IC50 was 64.3 nM under setting [1] and less than 100 nM under setting [2].

For the compound `COc1c(C(C)=O)ccc(-c2ccc(NC3(C(=O)O)CCOCC3)cc2COC2CCCC2)c1C` [Compound 189], the IC50 is, setting by setting: under setting [1], 52.5 nM; under setting [2], less than 100 nM.

As for `COc1cc(-c2cc(F)c(NC3(C(=O)O)CCOCC3)cc2COC2CCCC2)c(F)c(OC)c1C` [Compound 243], the IC50 reads like this: under setting [1], 82.9 nM; under setting [2], 100 to 1000 nM.

As for `O=C(O)C1(Nc2ccc(-c3cccc(CCO)c3F)c(COC3CC3)c2)CCOCC1` [Compound 305], the IC50 runs as follows: under setting [1], 711 nM; under setting [2], more than 1000 nM.

Take `CCOc1cc(-c2ccc(NC3(C(=O)O)CCOCC3)cc2COC2CC2)cc(OC)c1C` [Compound 329]: the IC50 under setting [1] amounted to 61.9 nM and the IC50 under setting [2] is less than 100 nM.

With `CCOc1cccc(-c2ccc(NC3(C(=O)O)CC3)cc2COC2CCCC2)c1C(F)F` [Compound 317], the IC50 is 14 nM under setting [1] and less than 100 nM under setting [2].

Take `CCOc1cncc(-c2ccc(NC3(C(=O)O)CCOCC3)cc2COC2Cc3ccccc3C2)c1C` [Compound 411, 4-({3-[(2,3-dihydro-1H-inden-2-yloxy)methyl]-4-(5-ethoxy-4-methylpyridin-3-yl)phenyl}amino)oxane-4-carboxylic acid]: the IC50 is, setting by setting: under setting [1], 5.2 nM; under setting [2], less than 100 nM.

Take `CCOc1cccc(-c2ccc(OC3(C(=O)O)CCC3)cc2COC2CC2)c1C(F)F` [Compound 375]: the IC50 runs as follows: under setting [1], 24.3 nM; under setting [2], less than 100 nM.

As usually defined, the IC50 is the midpoint of a concentration-inhibition curve.
